Among the data in patent US12162863B2, “Modulators of stimulator of interferon genes (STING)” (RYVU THERAPEUTICS S.A., priority 2018, dated 2024) are EC50 and ΔTm values, retold here.

The subject of experiment [1] is interferon regulatory factor (IRF) pathway in THP-1 dual cells. The experiment is described as follows: THP-1 Dual Reporter Assay, IRF pathway (luciferase reporter). In kind it is cell-based. Particulars: Homo sapiens, THP1-Dual, 18 h of stimulation, luminescence. As for the experimental part:
(§1) THP-1 Dual Reporter Assay
(§2) Compounds of the present invention were tested for their activity using THP-1 dual cells (Invivogen, cat no. thpd-nfis) allowing for simultaneous study of NF-κB pathway and the interferon regulatory factor (IRF) pathway. THP-1 dual cells contain luciferase reporter gene under the control of an ISG54 (interferon-stimulated gene) minimal promoter in conjunction with five interferon-stimulated response elements and a secreted embryonic alkaline phosphatase reporter gene under the control an IFN (interferon)-β minimal promoter fused to five copies of the NF-κB consensus transcriptional response element with three copies of the c-Rel binding site. Following 18 h of stimulation with STING agonist, medium was collected and transferred onto fresh cell culture plate. To verify activity of the IRF pathway, luminescence activity was measured with standard laboratory plate reader immediately after addition 10 μl of the medium to 50 μl of luminescence reagent (Invivogen, cat. No. rep-qlc2). To verify activity of NF-κB pathway, 20 μl of the medium was mixed with 80 μl of a detection medium (Invivogen, cat. No. rep-qb2) and incubated for 2 hours at 37° C. in a humidified atmosphere containing 5% CO2. Next, absorbance at 630 nm was recorded using standard laboratory plate reader.
(Reporter assays use an easily measured gene product as a stand-in for the process of interest.)

The target of the next experiment is human STING (Homo sapiens, UniProt Q86WV6). The experiment is described as follows: Fluorescence Thermal Shift assay. In kind it is binding. Particulars: 50 μM compound; STING 0.1 mg/ml; 20 minutes preincubation; read-out: [hSTING] FTS, ΔTm [° C.] for 50 μM. As for the experimental part:
Fluorescence Thermal Shift Assay Compounds of the present invention were tested for binding to human STING in Fluorescence Thermal Shift assay. STING was preincubated with the compounds for 20 minutes in 50 mM Hepes, 150 mM NaCl, pH 7.5 in 16 μl volume, following by adding 4 μl of SyproOrange dye dilution (ThermoFisher, cat no. S-6651). Final STING concentration was 0.1 mg/ml. Thermal unfolding was performed in Real-Time PCR QuantStudio 6 Flex System (Applied Biosystems), from 25 to 99° C., with continuous ramp mode and ramp rate 0.033° C./s. The data were analyzed using Protein Thermal Shift Software (ThermoFisher). […] For example, ΔTm [° C.] of FTS assay for following examples are: […]

The subject of experiment [2] is NF-κB pathway in THP-1 dual cells. The experiment is described as follows: THP-1 Dual Reporter Assay, NF-κB pathway (SEAP reporter). Particulars: Homo sapiens, THP1-Dual, 18 h of stimulation, absorbance at 630 nm, read-out: THP1 Dual EC50 (μM) NFkB. The format is cell-based. Here is the method:
as §1, §2

For orientation: EC50 means the concentration at which the effect is half-maximal. As usually defined, the ΔTm is the shift of the melting midpoint relative to a reference.

human STING, sequence (Q86WV6 whole entry H232R): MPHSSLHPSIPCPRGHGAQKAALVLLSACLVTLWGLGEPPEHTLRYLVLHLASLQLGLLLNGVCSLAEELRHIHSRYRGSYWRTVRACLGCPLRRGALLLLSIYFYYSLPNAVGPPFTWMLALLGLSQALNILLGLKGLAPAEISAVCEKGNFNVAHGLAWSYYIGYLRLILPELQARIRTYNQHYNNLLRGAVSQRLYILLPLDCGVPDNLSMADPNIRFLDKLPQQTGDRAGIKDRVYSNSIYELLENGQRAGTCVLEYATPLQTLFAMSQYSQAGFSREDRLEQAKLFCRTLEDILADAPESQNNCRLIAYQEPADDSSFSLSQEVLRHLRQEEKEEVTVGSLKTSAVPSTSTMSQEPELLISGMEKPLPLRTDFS

Turning to `COc1cc(CN(CCCn2ccnc2)Cc2c(C)oc3ccccc3c2=O)ccn1` [Example 46, 3-({[3-(1H-imidazol-1-yl)propyl][(2-methoxypyridin-4-yl)methyl]amino}methyl)-2-methyl-4H-chromen-4-one], the results for the EC50 in experiment [1] and in experiment [2] were at most 10 µM and at least 20 µM, respectively. For the same compound, on human STING, the ΔTm at 50 µM is below 2.5 °C.
On the same counts, the results for `O=c1c(CN(CCCn2ccnc2)Cc2ccncc2)coc2c1cc(F)c1ccccc12` [Example 47, 6-fluoro-3-({[3-(1H-imidazol-1-yl)propyl][(pyridin-4-yl)methyl]amino}methyl)-4H benzo[h]chromen-4-one] are at most 10 µM, at most 10 µM and above 2.5 °C.
With `Cc1oc2cc(Br)ccc2c(=O)c1CN(CCCn1ccnc1)Cc1ccncc1` [Example 48, 7-bromo-3-({[3-(1H-imidazol-1-yl)propyl][(pyridin-4-yl)methyl]amino}methyl)-2-methyl-4H-chromen-4-one], the EC50 in experiment [1] and in experiment [2] was at most 10 µM in each case. For the same compound, the ΔTm at 50 µM at human STING was above 2.5 °C.
As for `CN1CCN(c2cc3occ(CN(CCCn4ccnc4)Cc4ccncc4)c(=O)c3cc2F)CC1` [Example 49, 6-fluoro-3-({[3-(1H-imidazol-1-yl)propyl][(pyridin-4-yl)methyl]amino}methyl)-7-(4-methylpiperazin-1-yl)-4H-chromen-4-one], the EC50 in experiment [1] and in experiment [2] was at most 10 µM throughout. In addition, the ΔTm at 50 µM at human STING was above 2.5 °C.
On to `O=c1c(CN(CCCn2cnc3ccccc32)Cc2ccncc2)coc2c1ccc1ccccc12` [Example 50, 3-({[3-(1H-1,3-benzodiazol-1-yl)propyl][(pyridin-4-yl)methyl]amino}methyl)-4H-benzo[h]chromen-4-one], for which the EC50 in experiment [1] and in experiment [2] was at most 10 µM each time. Besides, the ΔTm at 50 µM at human STING was above 2.5 °C.
Consider `COc1cc(CN(CCCn2ccnc2)Cc2coc3c(C)c(C)ccc3c2=O)ccn1` [Example 51, 3-({[3-(1H-imidazol-1-yl)propyl][(2-methoxypyridin-4-yl)methyl]amino}methyl)-7,8-dimethyl-4H-chromen-4-one], for which the EC50 in experiment [1] and in experiment [2] was at most 10 µM throughout. In addition, at human STING, the ΔTm at 50 µM was above 2.5 °C.
Take `COc1ccc2ccc3c(=O)c(CN(CCCc4cccnc4)Cc4ccncc4)coc3c2c1` [Example 52, 9-methoxy-3-({[3-(pyridin-3-yl)propyl][(pyridin-4-yl)methyl]amino}methyl)-4H-benzo[h]chromen-4-one]: the EC50 in experiment [1] and in experiment [2] was at most 10 µM throughout. In addition, the ΔTm at 50 µM at human STING was above 2.5 °C.
With `COc1cc(CN(CCCn2cnc3ccccc32)Cc2coc3c(ccc4ccccc43)c2=O)ccn1` [Example 53, 3-({[3-(1H-1,3-benzodiazol-1-yl)propyl][(2-methoxypyridin-4-yl)methyl]amino}methyl)-4H-benzo[h]chromen-4-one], the EC50 in experiment [1] and in experiment [2] was at most 10 µM throughout. At human STING, the ΔTm at 50 µM was above 2.5 °C.
`O=c1c(CN(CCCc2cccnc2)Cc2ccncc2)coc2c1cc(F)c1ccccc12` [Example 54, 6-fluoro-3-({[3-(pyridin-3-yl)propyl][(pyridin-4-yl)methyl]amino}methyl)-4H benzo[h]chromen-4-one]: the EC50 in experiment [1] and in experiment [2] was at most 10 µM each time. The ΔTm at 50 µM at human STING was above 2.5 °C.
In the case of `Cc1ccc2c(=O)c(CN(CCCc3cccnc3)Cc3ccncc3)c(C)oc2c1C` [Example 55, 2,7,8-trimethyl-3-({[3-(pyridin-3-yl)propyl][(pyridin-4-yl)methyl]amino}methyl)-4H-chromen-4-one], the EC50 in experiment [1] and in experiment [2] was at most 10 µM throughout. In addition, the ΔTm at 50 µM on human STING is above 2.5 °C.
With `COc1ccc(-c2ccc3c(=O)c(CN(CCCn4ccnc4)Cc4ccncc4)c(C)oc3c2)cc1` [Example 56, 3-({[3-(1H-imidazol-1-yl)propyl][(pyridin-4-yl)methyl]amino}methyl)-7-(4-methoxyphenyl)-2-methyl-4H-chromen-4-one], the EC50 in experiment [1] and in experiment [2] was at most 10 µM each time. The ΔTm at 50 µM at human STING was above 2.5 °C.
Consider `COc1cccc(-c2cc3occ(CN(CCCn4ccnc4)Cc4ccncc4)c(=O)c3cc2F)c1` [Example 57, 6-fluoro-3-({[3-(1H-imidazol-1-yl)propyl][(pyridin-4-yl)methyl]amino}methyl)-7-(3-methoxyphenyl)-4H-chromen-4-one], for which the EC50 in experiment [1] and in experiment [2] was at least 20 µM each time. At human STING, the ΔTm at 50 µM was above 2.5 °C.
Take `CN1CCN(c2cc3occ(CN(CCCc4cccnc4)Cc4ccncc4)c(=O)c3cc2F)CC1` [Example 58, 6-fluoro-7-(4-methylpiperazin-1-yl)-3-({[3-(pyridin-3-yl)propyl](pyridin-4-ylmethyl)amino}methyl)-4H-chromen-4-one]: the EC50 in experiment [1] and in experiment [2] was at most 10 µM in each case. The ΔTm at 50 µM at human STING is above 2.5 °C.
For the compound `O=c1c(CN(CCCn2ccccc2=O)Cc2ccncc2)coc2c1ccc1ccccc12` [Example 59, 1-{3-[({4-oxo-4H-benzo[h]chromen-3-yl}methyl)[(pyridin-4-yl)methyl]amino]propyl}-1,2-dihydropyridin-2-one], the EC50 in experiment [1] and in experiment [2] was at most 10 µM each time. Besides, on human STING, the ΔTm at 50 µM was below 2.5 °C.
`CN(C)c1ccc(CCCN(Cc2ccncc2)Cc2coc3c(ccc4ccccc43)c2=O)cn1` [Example 60, 3-[({3-[6-(dimethylamino)pyridin-3-yl]propyl}[(pyridin-4-yl)methyl]amino)methyl]-4H-benzo[h]chromen-4-one]: the EC50 in experiment [1] and in experiment [2] was at least 20 µM in each case. On human STING, the ΔTm at 50 µM was below 2.5 °C.
Take `O=c1c(CN(CCCc2cncc3ccccc23)Cc2ccncc2)coc2c1ccc1ccccc12` [Example 61, 3-({[3-(isoquinolin-4-yl)propyl][(pyridin-4-yl)methyl]amino}methyl)-4H-benzo[h]chromen-4-one]: the EC50 in experiment [1] and in experiment [2] was at least 20 µM in each case. Besides, the ΔTm at 50 µM at human STING is below 2.5 °C.
On to `COc1ccc2ccc3c(=O)c(CN(CCCn4cnc5ccccc54)Cc4ccncc4)coc3c2c1` [Example 62, 3-({[3-(1H-1,3-benzodiazol-1-yl)propyl][(pyridin-4-yl)methyl]amino}methyl)-9-methoxy-4H-benzo[h]chromen-4-one], for which the EC50 in experiment [1] and in experiment [2] was at most 10 µM each time. Besides, at human STING, the ΔTm at 50 µM was above 2.5 °C.
`Cc1oc2cc(Br)c(F)cc2c(=O)c1CN(CCCc1cccnc1)Cc1ccncc1` [Example 63, 7-bromo-6-fluoro-2-methyl-3-({[3-(pyridin-3-yl)propyl][(pyridin-4-yl)methyl]amino}methyl)-4H-chromen-4-one]: the EC50 in experiment [1] and in experiment [2] was at most 10 µM in each case. Also, the ΔTm at 50 µM at human STING is above 2.5 °C.
With `Cc1oc2cc(Br)ccc2c(=O)c1CN(CCCc1cccnc1)Cc1ccncc1` [Example 64, 7-bromo-2-methyl-3-({[3-(pyridin-3-yl)propyl](pyridin-4-ylmethyl)amino}methyl)-4H-chromen-4-one], the EC50 in experiment [1] and in experiment [2] was at most 10 µM throughout. For the same compound, the ΔTm at 50 µM at human STING was above 2.5 °C.
With `Cc1oc2cc(N3CCN(C)CC3)c(F)cc2c(=O)c1CN(CCCc1cccnc1)Cc1ccncc1` [Example 65, 6-fluoro-2-methyl-7-(4-methylpiperazin-1-yl)-3-({[3-(pyridin-3-yl)propyl][(pyridin-4-yl)methyl]amino}methyl)-4-chromen-4-one], the EC50 in experiment [1] and in experiment [2] was at most 10 µM throughout. The ΔTm at 50 µM on human STING is above 2.5 °C.
Regarding `COc1ccc(CCCN(Cc2ccncc2)Cc2c(C)oc3c(C)c(C)ccc3c2=O)cn1` [Example 66, 3-({[3-(6-methoxypyridin-3-yl)propyl](pyridin-4-ylmethyl)amino}methyl)-2,7,8-trimethyl-4H-chromen-4-one], the EC50 in experiment [1] and in experiment [2] was at most 10 µM in each case. Further, on human STING, the ΔTm at 50 µM was below 2.5 °C.
Turning to `Cc1oc2c(ccc3ccccc32)c(=O)c1CN(CCCn1ccnc1)Cc1ccncc1` [Example 67, 3-({[3-(1H-imidazol-1-yl)propyl][(pyridin-4-yl)methyl]amino}methyl)-2-methyl-4H-benzo[h]chromen-4-one], the EC50 in experiment [1] and in experiment [2] was at most 10 µM each time. Further, at human STING, the ΔTm at 50 µM was above 2.5 °C.
